Data from patent US20070111990A1, “3-Aza-1-oxa-dibenzo[e,h]azulenes for the treatment of central nervous system diseases and disorders” (GLAXOSMITHKLINE ISTRAZIVACKI CENTAR ZAGREB D.O.O., priority 2003, published 2007).

Tests used:
5-HT2A receptor = target: T1, 5-HT2A receptor (Homo sapiens, UniProt P28223); assay: radioligand binding assay for 5-HT2A receptor ([3H]-ketanserin); details: competitive binding; for IC50: human cortex or recombinant 5-HT2A in CHO-K1, read-out: binding affinity to 5-HT2A serotonin receptor expressed as IC50 value; for Ki: human cortex or recombinant 5-HT2A in CHO-K1, read-out: binding affinity to 5-HT2A serotonin receptor, Ki value
T1 construct: expressed in transfected cells; host or cells: CHO-K1 (alternatively human cortex tissue)
T1 sequence (P28223 whole entry): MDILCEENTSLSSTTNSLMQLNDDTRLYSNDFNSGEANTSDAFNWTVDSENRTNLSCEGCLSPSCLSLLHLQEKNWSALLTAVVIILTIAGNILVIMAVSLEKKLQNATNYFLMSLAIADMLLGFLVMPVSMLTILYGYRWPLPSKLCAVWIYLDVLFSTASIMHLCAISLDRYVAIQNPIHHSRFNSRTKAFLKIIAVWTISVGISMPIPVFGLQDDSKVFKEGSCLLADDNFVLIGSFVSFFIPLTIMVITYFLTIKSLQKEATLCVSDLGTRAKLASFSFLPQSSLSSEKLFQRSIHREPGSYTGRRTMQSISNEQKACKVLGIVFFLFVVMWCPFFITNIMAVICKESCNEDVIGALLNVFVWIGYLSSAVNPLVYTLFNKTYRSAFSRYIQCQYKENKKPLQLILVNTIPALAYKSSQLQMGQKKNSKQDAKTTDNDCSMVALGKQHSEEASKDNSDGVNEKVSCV
Experimental: (§1) The effect of the compounds of the present invention on the neurochemical steady state was determined by in vitro investigations such as a radionuclide-marked radioligand binding assay for 5-HT2A (Bonhaus D. W. Br. J. Pharmacol. 1995, 115:622; Saucier C. J. Neurochem. 1997, 68:1998) and 5-HT2C receptors (Wolf W. A. J. Neurochem. 1997, 69:1449), in vitro binding assay for σ1 receptor (Thomson W. and Donn R. Arthritis Res. 2002, 4: 302-306) and by in vivo investigations in a tail suspension test (Vogel H. G. and Vogel W. H. Drug Discovery and Evaluation Pharmacological Assays, Springer 1997, 304), in amphethamine-induced hyperlocomotion in mice (Millan M. J. et al, 1998 J Pharmacol. Exp. Ther. 287: 167-186), in a forced swim test in mice (Porsolt R. D. et al. Arch. Int. Pharmacodyn. 1977, 229:327-336), in meta-chlorophenyl piperazine (m-CPP) test on rats (Drug Dev. Res. 1989, 18:119-144), and in apomorphine, tryptamine, norepinephrine (ATN) test in rats (Arch. Int. Pharmacodyn. 1977, 227:238-253).
(§2) In Vitro Method for Determining Affinity for Binding to 5-HT2A and 5-HT2C Receptors
(§3) A small concentration of a radioligand having a great affinity for binding to a receptor was incubated with a tissue sample enriched with a certain receptor (1-5 mg of tissue) in a buffered medium (0.2-5 mL). Recombinant human HT2A and HT2C receptors were expressed in CHO-K1 or COS-7 cells and were also used for competitive binding. During incubation the radioligand bound to the receptor. When a binding balance was achieved, the receptors to which the radioligand was bound were separated from those to which said ligand was not bound, and the radioactivity of the receptor/radioligand complex was measured. The interaction of the tested compounds with receptors was tested in competitive binding experiments. Various concentrations of tested compounds were added to the incubation mixture containing a prepared tissue enriched with corresponding receptors and the radioligand. The radioligand binding was inhibited by the test compounds proportionally to the affinity of a certain compound for the receptor and to the concentration of the compound.
The radioligand used for the determination of binding to ^5-HT2A receptor was [^3H]-ketanserin and the tissue used was human cortex or recombinant 5-HT2A receptor expressed in CHO—K1.

5-HT2C receptor = target: T2, 5-HT2C receptor (Homo sapiens, UniProt P28335); assay: radioligand binding assay for 5-HT2C receptor ([3H]-mesulergine); details: competitive binding; for IC50: choroid plexus or recombinant 5-HT2C in CHO-K1, read-out: binding affinity to 5-HT2C serotonin receptor expressed as IC50 value; for Ki: choroid plexus or recombinant 5-HT2C in CHO-K1, read-out: binding affinity to 5-HT2C serotonin receptor, Ki value
T2 construct: expressed in transfected cells; host or cells: CHO-K1 cells (alternatively choroid plexus tissue)
T2 sequence (P28335 33-458): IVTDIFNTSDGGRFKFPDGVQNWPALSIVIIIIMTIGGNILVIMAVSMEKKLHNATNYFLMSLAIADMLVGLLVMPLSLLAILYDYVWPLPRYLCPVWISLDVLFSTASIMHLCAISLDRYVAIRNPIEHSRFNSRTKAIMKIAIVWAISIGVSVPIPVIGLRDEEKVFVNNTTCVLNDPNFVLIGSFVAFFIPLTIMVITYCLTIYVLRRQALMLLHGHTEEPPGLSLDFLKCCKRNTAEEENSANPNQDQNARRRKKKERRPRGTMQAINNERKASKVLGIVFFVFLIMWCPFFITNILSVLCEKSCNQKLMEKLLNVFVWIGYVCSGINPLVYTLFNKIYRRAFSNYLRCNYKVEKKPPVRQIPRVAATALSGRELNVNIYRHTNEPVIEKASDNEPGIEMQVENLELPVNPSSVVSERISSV
Experimental: as §1, §2, §3
The radioligand used for the determination of binding to 5-HT2C receptor was [^3H]-mesulergine and the tissue used was choroid plexus or recombinant 5-HT2C receptor expressed in CHO—K1 cells.

Structure (SMILES)	IC50 (5-HT2A receptor) [nM]	Ki (5-HT2A receptor) [nM]	IC50 (5-HT2C receptor) [nM]	Ki (5-HT2C receptor) [nM]
CN(C)CCOCc1nc2c(o1)-c1ccccc1Sc1ccccc1-2 [dimethyl-[2-(1-oxa-8-thia-3-aza-dibenzo[e,h]azulen-2-ylmethoxy)-ethyl]-amine]	< 200	< 100	< 200	< 100
CN(C)CCOCc1nc2c(o1)-c1cc(Cl)ccc1Sc1ccccc1-2 [[2-(11-chloro-1-oxa-8-thia-3-aza-dibenzo[e,h]azulen-2-ylmethoxy)-ethyl]-dimethyl-amine]	< 200	< 100	< 200	< 100
Cc1nc2c(o1)-c1ccccc1Oc1ccc(Cl)cc1-2 [5-chloro-2-methyl-1,8-dioxa-3-aza-dibenzo[e,h]azulene]	< 200	< 100	< 200	< 100
c1ccc2c(c1)Sc1ccccc1-c1ocnc1-2 [1-oxa-8-thia-3-aza-dibenzo[e,h]azulene]	< 200	< 100	< 200	< 100
CN(C)CCOCc1nc2c(o1)-c1ccccc1Sc1ccc(Cl)cc1-2 [[2-(5-chloro-1-oxa-8-thia-3-aza-dibenzo[e,h]azulen-2-ylmethoxy)-ethyl]-dimethyl-amine]	< 200	< 100	< 200	< 100
